The text below walks through data of US20020035061A1, “COMPOSITIONS AND METHODS FOR TREATING INFECTIONS USING CATIONIC PEPTIDES ALONE OR IN COMBINATION WITH ANTIBIOTICS” (priority 1996, published 2002).

Read-outs that look alike come from different tables or passages of the source. Some results are limits rather than exact numbers.

Assay [1] relates to P. aeruginosa. Type of assay: cell-based. The settings on record: for Peptide MIC values: agarose dilution.
In assay [2] the test system is E. faecium. Type of assay: cell-based. The settings on record: for Peptide MIC values: agarose dilution.
The subject of assay [3] is S. aureus. Type of assay: cell-based. The settings on record: for Peptide MIC values: agarose dilution.
Assay [4] deals with MSSA (Smith, ATCC # 19640). The assay can be described thus: In vivo efficacy, MSSA infection. The arrangement: species or system S. aureus. The settings on record: formulation D, 60 min post-infection, end of eight day observation.
Assay [5] relates to E. coli. Type of assay: cell-based. The settings on record: for Peptide MIC values: agarose dilution.
Assay [6] relates to E. cloacae. Type of assay: cell-based. As to conditions: E. cloacae strain ECL007.
In assay [7] the test system is E. faecalis. It is filed as cell-based.
The test system of assay [8] is K. pneumoniae. Type of assay: cell-based.
Assay [9] concerns S. marcescens. It is filed as cell-based. As to conditions: for Peptide MIC values: agarose dilution, S. marcescens SM82.
Assay [10] relates to S. maltophilia. It is filed as cell-based.
Assay [11] concerns S. pneumoniae. Put plainly: Agarose dilution assay (MIC). It is filed as cell-based. The settings on record: agarose dilution.
The subject of assay [12] is microorganisms with acquired resistance. Put plainly: microbe, parasite or virus in culture. Type of assay: cell-based. The settings on record: S. aureus; combination with Mupirocin; in µg/mL.
Assay [13] relates to A. calcoaceticus. Type of assay: cell-based.
Assay [14] concerns S. epidermidis. Type of assay: cell-based.

For orientation: MIC means the lowest concentration that inhibits growth of the organism.

With IKKWPWWPWRRK [MBI 11G2CN], the MIC in assay [1] (P. aeruginosa strain PA004) was above 128 µg/mL; in assay [2] (E. faecium strain EFM002), 4 µg/mL; in assay [3] (S. aureus strain SA009), 2 µg/mL; in [5] (E. coli strain ECO003) it was 16 µg/mL; in assay [6], above 128 µg/mL; in assay [7] (E. faecalis strain EFS004), 16 µg/mL. For the same sequence, the minimal inhibitory concentration (MIC) is 128 µg/mL in assay [8] (K. pneumoniae strain KP002), above 128 µg/mL in assay [9] (S. marcescens strain SMS004) and above 128 µg/mL in assay [10] (S. maltophilia strain SMA001). Moreover, the “% Survival” value was 10% in assay [4] (12 mg/kg ip), 0% in [4] (18 mg/kg ip) and 40% in assay [4] (24 mg/kg ip).
As to ILKKWVWWVWRRK [MBI 11F1CN], the MIC in assay [1] (P. aeruginosa strain PA004) was 64 µg/mL; in [2] (E. faecium strain EFM003), 2 µg/mL; in assay [3] (S. aureus strain SA009), 2 µg/mL; in [5] (E. coli strain ECO003) it was 8 µg/mL; in assay [6] it was above 128 µg/mL; in [7] (E. faecalis strain EFS004) it was 16 µg/mL. Further, the minimal inhibitory concentration (MIC) in assay [8] (K. pneumoniae strain KP002) is 32 µg/mL; in [9] (S. marcescens strain SBSM1) it was above 128 µg/mL; in assay [9] (S. marcescens strain SMS003) it was above 128 µg/mL. For the same sequence, the “Peptide MIC values” in [1] (P. aeruginosa ATCC 27853) is 64 µg/mL; in [1] (P. aeruginosa NCTC 10662), 64 µg/mL; in assay [2] it was 8 µg/mL; in assay [3] (S. aureus MRSA9), 2 µg/mL; in assay [3] (S. aureus MRSA13), 16 µg/mL; in assay [3] (S. aureus MRSA17), 2 µg/mL. The “Peptide MIC values” in assay [5] (E. coli ATCC 25922) was 8 µg/mL; in assay [5] (E. coli NCTC 10418) it was 2 µg/mL; in assay [11] (S. pneumoniae 406LE8), 128 µg/mL; in [11] (S. pneumoniae 60120), 128 µg/mL; in assay [11] (S. pneumoniae ATCC 49619), 64 µg/mL; in assay [9], above 128 µg/mL. Besides, the “Peptide MIC” value in [12] is recorded as 8.
For the sequence ILKKWWWPWRRK [MBI 11G4CN], the MIC is 4 µg/mL in assay [13] (A. calcoaceticus strain AC002); above 128 µg/mL in [1] (P. aeruginosa strain PA004); 1 µg/mL in [2] (E. faecium strain EFM003); 1 µg/mL in [3] (S. aureus strain SA004); 32 µg/mL in [5] (E. coli strain ECO005); above 128 µg/mL in assay [6]. Besides, the minimum inhibitory concentration (MIC) is 32 µg/mL in [7] (E. faecalis strain EFS002); above 128 µg/mL in assay [8] (K. pneumoniae strain KP001); above 128 µg/mL in assay [9] (S. marcescens strain SMS003); 2 µg/mL in assay [14] (S. epidermidis strain SE010); 64 µg/mL in assay [10] (S. maltophilia strain SMA002). Moreover, the “% Survival” value in assay [4] (12 mg/kg ip) turned out to be 0%; in assay [4] (18 mg/kg ip), 0%; in assay [4] (24 mg/kg ip), 20%.
Take ILKWPWWPWRK [MBI 11B5CN]: the minimum inhibitory concentration (MIC) was 4 µg/mL in assay [13] (A. calcoaceticus strain AC002); above 128 µg/mL in [1] (P. aeruginosa strain PA004); 1 µg/mL in assay [2] (E. faecium strain EFM002); 2 µg/mL in assay [3] (S. aureus strain SA005); 2 µg/mL in assay [3] (S. aureus strain SA014); 1 µg/mL in assay [3] (S. aureus strain SA093). Moreover, the minimal inhibitory concentration (MIC) in assay [5] (E. coli strain ECO005) is 16 µg/mL; in [6], above 128 µg/mL; in [7] (E. faecalis strain EFS001), 2 µg/mL; in [7] (E. faecalis strain EFS002) it was 16 µg/mL; in assay [7] (E. faecalis strain EFS008), 8 µg/mL; in assay [8] (K. pneumoniae strain KP001), 16 µg/mL. Also, the minimal inhibitory concentration (MIC) was above 128 µg/mL in assay [9] (S. marcescens strain SMS003), 1 µg/mL in assay [14] (S. epidermidis strain SE010) and 64 µg/mL in assay [10] (S. maltophilia strain SMA002).
Consider ILRRWPWWPWRRK [MBI 11B1CN], for which the MIC was 32 µg/mL in assay [13] (A. calcoaceticus strain AC001); above 128 µg/mL in assay [1] (P. aeruginosa strain PA005); 2 µg/mL in assay [2] (E. faecium strain EFM002); 2 µg/mL in assay [3] (S. aureus strain SA005); 8 µg/mL in assay [5] (E. coli strain ECO003); above 128 µg/mL in [6]. For the same sequence, the MIC in assay [7] (E. faecalis strain EFS004) was 8 µg/mL; in assay [8] (K. pneumoniae strain KP002), 64 µg/mL; in [9] (S. marcescens strain SMS004), above 128 µg/mL; in assay [14] (S. epidermidis strain SE001) it was 2 µg/mL; in assay [10] (S. maltophilia strain SMA001), 64 µg/mL. The “% Survival” value came out at 0% in assay [4] (12 mg/kg ip), 30% in assay [4] (18 mg/kg ip) and 90% in [4] (24 mg/kg ip).
On to ILRRWPWWPWRRR [MBI 11B9ACN], for which the MIC in [13] (A. calcoaceticus strain AC001) was 32 µg/mL; in [1] (P. aeruginosa strain PA005) it was above 128 µg/mL; in assay [2] (E. faecium strain EFM001), 4 µg/mL; in assay [3] (S. aureus strain SA019), 2 µg/mL; in [5] (E. coli strain ECO003) it was 8 µg/mL; in assay [6], above 128 µg/mL. Besides, the MIC in [7] (E. faecalis strain EFS004) was 8 µg/mL; in assay [8] (K. pneumoniae strain KP002), 32 µg/mL; in assay [9] (S. marcescens strain SMS004), above 128 µg/mL; in assay [14] (S. epidermidis strain SE002), 2 µg/mL; in assay [10] (S. maltophilia strain SMA001) it was 16 µg/mL.
For the sequence ILWPWWPWRRK [MBI 11B8CN], the MIC in assay [13] (A. calcoaceticus strain AC001) was above 128 µg/mL; in [1] (P. aeruginosa strain PA005) it was above 128 µg/mL; in assay [2] (E. faecium strain EFM001), 16 µg/mL; in assay [3] (S. aureus strain SA009) it was 4 µg/mL; in assay [5] (E. coli strain ECO002), 16 µg/mL; in [6] it was above 128 µg/mL. For the same sequence, the MIC in assay [7] (E. faecalis strain EFS002) was 32 µg/mL; in [8] (K. pneumoniae strain KP001), above 128 µg/mL; in [9] (S. marcescens strain SMS003), above 128 µg/mL; in assay [14] (S. epidermidis strain SE002) it was 4 µg/mL; in [10] (S. maltophilia strain SMA002), 128 µg/mL. Moreover, the “Peptide MIC values” is above 128 µg/mL in assay [1] (P. aeruginosa ATCC 27853); above 128 µg/mL in [1] (P. aeruginosa NCTC 10662); 8 µg/mL in [2]; 2 µg/mL in assay [3] (S. aureus MRSA9); 32 µg/mL in assay [3] (S. aureus MRSA13); 4 µg/mL in [3] (S. aureus MRSA17). Besides, the “Peptide MIC values” in [5] (E. coli ATCC 25922) is 32 µg/mL; in assay [5] (E. coli NCTC 10418) it was 4 µg/mL; in [11] (S. pneumoniae 406LE8), above 128 µg/mL; in [11] (S. pneumoniae 60120) it was above 128 µg/mL; in [11] (S. pneumoniae ATCC 49619), 128 µg/mL; in assay [9], above 128 µg/mL. For the same sequence, the “% Survival” value in [4] (12 mg/kg ip) amounted to 0%; in assay [4] (18 mg/kg ip), 10%.
With LKKWPWWPWRRK [MBI 11D1CN], the MIC in assay [13] (A. calcoaceticus strain AC001) is above 128 µg/mL; in assay [1] (P. aeruginosa strain PA003), above 128 µg/mL; in assay [2] (E. faecium strain EFM001) it was 16 µg/mL; in assay [3] (S. aureus strain SA004), 2 µg/mL; in assay [5] (E. coli strain ECO002), 16 µg/mL; in assay [6], above 128 µg/mL. Moreover, the MIC in [7] (E. faecalis strain EFS002) is 32 µg/mL; in assay [8] (K. pneumoniae strain KP002) it was 64 µg/mL; in [9] (S. marcescens strain SMS003) it was above 128 µg/mL; in assay [14] (S. epidermidis strain SE010), 8 µg/mL; in [10] (S. maltophilia strain SMA001) it was 64 µg/mL.
For WWKKWPWWPWRRK [MBI 11C5CN], the MIC in [13] (A. calcoaceticus strain AC001) was 32 µg/mL; in [1] (P. aeruginosa strain PA003), 64 µg/mL; in assay [2] (E. faecium strain EFM003) it was 2 µg/mL; in [3] (S. aureus strain SA009), 2 µg/mL; in assay [5] (E. coli strain ECO001), 8 µg/mL; in assay [6], above 128 µg/mL. The minimum inhibitory concentration (MIC) in [7] (E. faecalis strain EFS002) was 16 µg/mL; in assay [8] (K. pneumoniae strain KP002), 16 µg/mL; in [9] (S. marcescens strain SMS004) it was above 128 µg/mL; in assay [14] (S. epidermidis strain SE002) it was 2 µg/mL; in [10] (S. maltophilia strain SMA002) it was 16 µg/mL.
